Measurements: patent US20040049072A1, “RXR modulators with improved pharmacologic profile” (priority 1999, published 2004)

How the values were obtained:
RXRα:PPARγ heterodimer = biological target: T1, RXRα:PPARγ heterodimer (Homo sapiens, UniProt P19793); assay: RXR:PPARγ heterodimer co-transfection assay in CV-1 cells; format: cell-based; conditions: for PPARγ CV-1 (%) Synergy: maximal response in presence of 100 nM BRL49653 relative to BRL49653 alone; for RXRα:PPARγ Heterodimer Cotransfection Assay Synerg Efficacy (%): maximal response in presence of 100 nM BRL relative to response of BRL alone; for RXRα:PPARγ Heterodimer Cotransfection Assay Agonist Efficacy (%): maximal response relative to response of BRL 49653; for activity on the RXRα:PPARγ heterodimer in combination with the PPARγ ligand: synergy mode, with BRL 49653
T1 construct: expressed in transfected cells; host or cells: CV-1 cells
T1 sequence (P19793 1-462): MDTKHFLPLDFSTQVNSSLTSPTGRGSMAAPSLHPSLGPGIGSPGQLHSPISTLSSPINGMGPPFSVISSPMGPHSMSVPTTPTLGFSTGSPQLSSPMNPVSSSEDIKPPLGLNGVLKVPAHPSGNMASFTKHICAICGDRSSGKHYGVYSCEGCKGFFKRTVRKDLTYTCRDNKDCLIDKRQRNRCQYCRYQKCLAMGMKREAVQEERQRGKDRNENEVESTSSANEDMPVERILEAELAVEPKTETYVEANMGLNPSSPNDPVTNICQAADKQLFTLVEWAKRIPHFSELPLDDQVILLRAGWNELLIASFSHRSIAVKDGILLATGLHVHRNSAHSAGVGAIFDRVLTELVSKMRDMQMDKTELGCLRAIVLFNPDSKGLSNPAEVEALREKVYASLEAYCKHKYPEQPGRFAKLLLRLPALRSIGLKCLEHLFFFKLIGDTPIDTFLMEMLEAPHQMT
T1 sequence (P37231 1-505 partner): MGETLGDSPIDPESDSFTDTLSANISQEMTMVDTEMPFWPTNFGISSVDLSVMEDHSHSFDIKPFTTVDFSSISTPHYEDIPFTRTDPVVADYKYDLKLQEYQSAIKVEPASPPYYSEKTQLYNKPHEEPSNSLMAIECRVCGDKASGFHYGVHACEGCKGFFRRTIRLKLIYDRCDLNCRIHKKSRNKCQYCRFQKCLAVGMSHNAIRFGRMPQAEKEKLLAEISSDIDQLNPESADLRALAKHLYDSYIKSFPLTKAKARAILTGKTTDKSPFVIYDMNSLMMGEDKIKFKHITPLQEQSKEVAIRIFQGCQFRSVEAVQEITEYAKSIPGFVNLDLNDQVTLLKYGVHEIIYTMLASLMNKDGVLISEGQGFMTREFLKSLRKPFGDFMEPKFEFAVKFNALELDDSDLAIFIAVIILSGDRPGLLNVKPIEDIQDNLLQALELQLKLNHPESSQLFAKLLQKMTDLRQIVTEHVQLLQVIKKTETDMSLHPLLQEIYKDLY
Procedure: For determination of agonist activity in the context of the RXR:RAR heterodimer or the RXR:PPARγ heterodimer, media containing compounds of the present invention in concentrations ranging from 10^−10 to 10^−5 M were added to the cells.
Compounds of the present invention were also tested for the ability to synergize with a PPARγ agonist in the context of an RXR heterodimer. […] Efficacy of the compounds of the present invention in the agonist and synergy assays was calculated as the maximum response obtained over the range of the dose response curve relative to the maximum response obtained by the reference agonist. Antagonist efficacy was determined as a function (%) of maximal inhibition.
To examine the effects of the compounds of the present invention on the transcriptional properties of the RXR:PPARγ, a heterodimer cotransfection assay as described above was employed.

[1] = tested on: mice transgenic for the human apolipoprotein A-I gene; assay: transgenic mice carrying the human apo A-I gene (HDL cholesterol, triglycerides); format: in vivo, mouse
Source text: Mice transgenic for the human apolipoprotein A-I gene (obtained from Jackson Laboratory) were used to evaluate PPARalpha mediated effects on HDL cholesterol. The mice were handled as described above for db/db mice, except that they were fed Purina 5001.

| Compound | activity on the RXRα:PPARγ heterodimer, tested alone (RXRα:PPARγ heterodimer) | PPARγ CV-1 (%) Synergy (RXRα:PPARγ heterodimer) | RXRα:PPARγ Heterodimer Cotransfection Assay Synerg Efficacy (%) (RXRα:PPARγ heterodimer) | RXRα:PPARγ Heterodimer Cotransfection Assay Agonist Efficacy (%) (RXRα:PPARγ heterodimer) | activity on the RXRα:PPARγ heterodimer in combination with the PPARγ ligand (RXRα:PPARγ heterodimer) | triglycerides [1] |
| --- | --- | --- | --- | --- | --- | --- |
| CCCCOc1c(/C(C)=C/C=C/C(C)=C/C(=O)O)cc(C(C)(C)C)cc1C(C)(C)C [Compound L4] | only weakly active alone | 20% | 20% | 3% | active in the presence of the PPARγ ligand | – |
| COc1c(/C(C)=C/C=C/C(C)=C/C(=O)O)cc(C(C)(C)C)cc1C(C)(C)C [Compound L1] | both agonist and synergistic activity similar to that seen with LGD1069 and LG100268 | 166% | 166% | 59% | both agonist and synergistic activity similar to that seen with LGD1069 and LG100268 | substantially raise triglycerides |
| CCCCCCCOc1c(/C(C)=C/C=C/C(C)=C/C(=O)O)cc(C(C)(C)C)cc1C(C)(C)C [Compound L5] | not active as an agonist | 6% | 6% | 4% | not active as an agonist | – |
| CCCOc1c(/C(C)=C/C=C/C(C)=C/C(=O)O)cc(C(C)(C)C)cc1C(C)(C)C [Compound L3] | only weakly active alone | 25% | 25% | 6% | active in the presence of the PPARγ ligand | – |
| CCOc1c(/C(C)=C/C=C/C(C)=C/C(=O)O)cc(C(C)(C)C)cc1C(C)(C)C [Compound L2] | partial agonist alone | 69% | 69% | 14% | stronger activity in combination with the PPARγ ligand | – |
